# Measurements from PubChem BioAssay (NCI).
#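 Following 48 hours of exposure in 96-well plates, responses at five concentrations were used to interpolate endpoints linearly. Abbreviation: GI50, concentration required for 50% inhibition of growth. TGI: concentration producing complete growth inhibition.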
# Tested on: MCF7 breast
# Assay: NCI-60 cell line screen, 48 h
SMILES,GI50,TGI
c1ccc2c(c1)c1ccccc1c1ccccc21,> 100 µM,> 100 µM
NC(=O)CNc1ccc([As]=[As]c2ccc(NCC(N)=O)cc2)cc1 (centres undefined),2.12 µM,15.2 µM

# Tested on: NCI-H226 lung
# Assay: NCI-60 cell line screen, 48 h
SMILES,GI50,TGI
COc1ccc(-c2nn(-c3cccc(Cl)c3)cc2-c2nc(N)[nH]c(=O)c2C#N)cc1,6.23 µM,70.3 µM
COC(=O)C(=O)CC(=O)c1cccc(OC)c1,,> 100 µM
COc1cc2c3c(n(CCCN(CCO)CCO)c(=O)c2cc1OC)-c1cc2c(cc1C3=O)OCO2,0.0377 µM,0.724 µM
O=C(CCN1CCOCC1)Nc1cccc(-n2cc(-c3ccncc3)c(-c3ccc(Cl)c(O)c3)n2)c1,4.98 µM,21.4 µM
C=C(C)[C@@H]1CC[C@]2(C)[C@H](CC[C@@H]3[C@@H]([C@@](C)(O)CCC=C(C)C)CC[C@]32C)[C@@]1(C)CCC(=O)O,18.1 µM,37.3 µM
Cn1cc(S(=O)(=O)N2CCC3=Cc4c(cnn4-c4ccc(F)cc4)C[C@]3(C(=O)c3cc(C(F)(F)F)ccn3)C2)cn1,81.1 µM,> 100 µM
Oc1ccc(Oc2cnc3ccccc3n2)cc1,> 100 µM,> 100 µM
Cc1ccc2occ/c(=N\Nc3ccccc3)c2c1,,> 100 µM
CC(=O)NC1CONC1=O (centres undefined),,> 100 µM
Oc1ccc(N=Nc2nccs2)c(O)c1,12.4 µM,45.1 µM
COc1cc(/C=C/C(=O)Oc2ccccc2)ccc1C(=O)O/C=C/c1ccccc1,,> 100 µM
COc1ccc2c(c1)C(C)Cc1c(ncnc1-n1cnc3ccccc31)N2C (centres undefined),12.4 µM,27.7 µM
CC(Cl)CN1c2ccccc2Sc2ccc(Cl)cc21 (centres undefined),,> 10 µM
NCCCn1c2c(c3ccccc3c1=O)C(=O)c1ccccc1-2,0.143 µM,1.74 µM
O=C1c2ccccc2C(=O)c2c(NCCN=Cc3ccccc3O)cccc21,7.97 µM,> 38.2 µM
Oc1ccc(/C=C/c2cc(O)cc3c2C(c2cc(O)cc(O)c2)C(c2ccc(O)c(O)c2)O3)cc1 (centres undefined),,> 100 µM
COc1ccc(/C=C/c2cnccn2)cc1OC,,> 10 µM
CCc1nc(Cl)c(Cl)c(Cl)n1,,> 100 µM
O=[N+]([O-])c1ccc(Sc2c3ccccc3nc3ccccc23)cn1,,> 100 µM
COc1cc2c3c(n(CCCN(C)CCO)c(=O)c2cc1OC)-c1cc2c(cc1C3=O)OCO2,1.7 µM,26.5 µM
C=CCn1c(SCC(=O)Nc2ccc(C(=O)/C=C/c3cc(OC)c(OC)c(OC)c3)cc2)nnc1-c1ccc(OC)cc1,0.445 µM,1.55 µM
CNC(C)[C@H]1CCC2C3CC=C4C(=O)[C@@H](NC(=O)C=C(C)C)CC[C@]4(C)C3CC[C@@]21C (some centres undefined),2.53 µM,14.1 µM
Clc1nc(Cl)c2ncn(Cc3ccccc3Cn3cnc4c(Cl)nc(Cl)nc43)c2n1,2.76 µM,7.16 µM
C=C1C(O)C2C(=C(C)C13CC3)C(=O)C(C)(C)C2OC (centres undefined),> 100 µM,> 100 µM
CS(=O)(=O)CS(=O)(=O)OCCCl,,785 µM
CC(C)(C)c1cc(C(=O)/C=C/c2ccc(C(=O)O)cc2)cc(C(C)(C)C)c1,,4.22 µM
COc1ccc(-c2ccc(NNC(=O)c3ccc(F)cc3)nn2)cc1OC,71.8 µM,> 100 µM
C=C1C(=O)OC2C1CC(OC(C)=O)/C(C)=C/CCC1(C)OC21 (centres undefined),,> 100 µM
c1ccc2c(c1)c1ccccc1c1ccccc21,> 100 µM,> 100 µM
NC(=O)CNc1ccc([As]=[As]c2ccc(NCC(N)=O)cc2)cc1 (centres undefined),5.62 µM,22.8 µM

# Tested on: OVCAR-5 ovarian
# Assay: NCI-60 cell line screen, 48 h
SMILES,GI50,TGI
COc1ccc(-c2nn(-c3cccc(Cl)c3)cc2-c2nc(N)[nH]c(=O)c2C#N)cc1,14.6 µM,51.4 µM
COC(=O)C(=O)CC(=O)c1cccc(OC)c1,,> 100 µM
COc1cc2c3c(n(CCCN(CCO)CCO)c(=O)c2cc1OC)-c1cc2c(cc1C3=O)OCO2,0.209 µM,1.31 µM
O=C(CCN1CCOCC1)Nc1cccc(-n2cc(-c3ccncc3)c(-c3ccc(Cl)c(O)c3)n2)c1,4.07 µM,18.4 µM
C=C(C)[C@@H]1CC[C@]2(C)[C@H](CC[C@@H]3[C@@H]([C@@](C)(O)CCC=C(C)C)CC[C@]32C)[C@@]1(C)CCC(=O)O,17.6 µM,34.2 µM
Cn1cc(S(=O)(=O)N2CCC3=Cc4c(cnn4-c4ccc(F)cc4)C[C@]3(C(=O)c3cc(C(F)(F)F)ccn3)C2)cn1,> 100 µM,> 100 µM
c1ccc(NCCSc2nc3ccccc3s2)cc1,,> 100 µM
Oc1ccc(Oc2cnc3ccccc3n2)cc1,> 100 µM,> 100 µM
Cc1ccc2occ/c(=N\Nc3ccccc3)c2c1,,> 100 µM
CC(=O)NC1CONC1=O (centres undefined),,> 100 µM
Oc1ccc(N=Nc2nccs2)c(O)c1,7.84 µM,29.4 µM
COc1cc(/C=C/C(=O)Oc2ccccc2)ccc1C(=O)O/C=C/c1ccccc1,,> 100 µM
COc1ccc2c(c1)C(C)Cc1c(ncnc1-n1cnc3ccccc31)N2C (centres undefined),6.21 µM,43.9 µM
CC(Cl)CN1c2ccccc2Sc2ccc(Cl)cc21 (centres undefined),,> 10 µM
NCCCn1c2c(c3ccccc3c1=O)C(=O)c1ccccc1-2,0.306 µM,2.94 µM
O=C1c2ccccc2C(=O)c2c(NCCN=Cc3ccccc3O)cccc21,14.2 µM,99.3 µM
Oc1ccc(/C=C/c2cc(O)cc3c2C(c2cc(O)cc(O)c2)C(c2ccc(O)c(O)c2)O3)cc1 (centres undefined),,> 100 µM
COc1ccc(/C=C/c2cnccn2)cc1OC,,> 10 µM
CCc1nc(Cl)c(Cl)c(Cl)n1,,> 100 µM
O=[N+]([O-])c1ccc(Sc2c3ccccc3nc3ccccc23)cn1,,> 100 µM
COc1cc2c3c(n(CCCN(C)CCO)c(=O)c2cc1OC)-c1cc2c(cc1C3=O)OCO2,51.7 µM,> 100 µM
CNC(C)[C@H]1CCC2C3CC=C4C(=O)[C@@H](NC(=O)C=C(C)C)CC[C@]4(C)C3CC[C@@]21C (some centres undefined),2.53 µM,10.9 µM
Clc1nc(Cl)c2ncn(Cc3ccccc3Cn3cnc4c(Cl)nc(Cl)nc43)c2n1,5.09 µM,10.4 µM
C=C1C(O)C2C(=C(C)C13CC3)C(=O)C(C)(C)C2OC (centres undefined),> 100 µM,> 100 µM
CS(=O)(=O)CS(=O)(=O)OCCCl,,1260 µM
CC(C)(C)c1cc(C(=O)/C=C/c2ccc(C(=O)O)cc2)cc(C(C)(C)C)c1,,17.2 µM
COc1ccc(-c2ccc(NNC(=O)c3ccc(F)cc3)nn2)cc1OC,> 100 µM,> 100 µM
C=C1C(=O)OC2C1CC(OC(C)=O)/C(C)=C/CCC1(C)OC21 (centres undefined),,> 100 µM
c1ccc2c(c1)c1ccccc1c1ccccc21,> 100 µM,> 100 µM
NC(=O)CNc1ccc([As]=[As]c2ccc(NCC(N)=O)cc2)cc1 (centres undefined),4.42 µM,20.2 µM

# Tested on: SNB-75 CNS
# Assay: NCI-60 cell line screen, 48 h
SMILES,GI50,TGI
COc1ccc(-c2nn(-c3cccc(Cl)c3)cc2-c2nc(N)[nH]c(=O)c2C#N)cc1,2.88 µM,21.1 µM
COC(=O)C(=O)CC(=O)c1cccc(OC)c1,,> 100 µM
COc1cc2c3c(n(CCCN(CCO)CCO)c(=O)c2cc1OC)-c1cc2c(cc1C3=O)OCO2,0.0811 µM,2.19 µM
O=C(CCN1CCOCC1)Nc1cccc(-n2cc(-c3ccncc3)c(-c3ccc(Cl)c(O)c3)n2)c1,0.825 µM,3.3 µM
C=C(C)[C@@H]1CC[C@]2(C)[C@H](CC[C@@H]3[C@@H]([C@@](C)(O)CCC=C(C)C)CC[C@]32C)[C@@]1(C)CCC(=O)O,15.3 µM,34.8 µM
Cn1cc(S(=O)(=O)N2CCC3=Cc4c(cnn4-c4ccc(F)cc4)C[C@]3(C(=O)c3cc(C(F)(F)F)ccn3)C2)cn1,> 100 µM,> 100 µM
c1ccc(NCCSc2nc3ccccc3s2)cc1,,> 100 µM
Oc1ccc(Oc2cnc3ccccc3n2)cc1,60 µM,> 100 µM
Cc1ccc2occ/c(=N\Nc3ccccc3)c2c1,,63.2 µM
CC(=O)NC1CONC1=O (centres undefined),,> 100 µM
Oc1ccc(N=Nc2nccs2)c(O)c1,14.2 µM,> 100 µM
COc1cc(/C=C/C(=O)Oc2ccccc2)ccc1C(=O)O/C=C/c1ccccc1,,> 100 µM
CC(Cl)CN1c2ccccc2Sc2ccc(Cl)cc21 (centres undefined),,> 10 µM
